Source: the kinase profiling compilation of Christmann-Franck et al. (2016)

How the values were obtained:
Assay in all cases: split-luciferase competition binding
[1] = molecular target: AKT1 (human) (UniProt P31749); conditions: compound 10.0 µM
[2] = molecular target: AKT2 (human) (UniProt P31751); conditions: compound 10.0 µM
[3] = molecular target: AKT3 (human) (UniProt Q9Y243); conditions: compound 10.0 µM
[4] = molecular target: AURKA (human) (UniProt O14965); conditions: compound 10.0 µM
Sequence of AURKA (human) (O14965 whole entry, looked up): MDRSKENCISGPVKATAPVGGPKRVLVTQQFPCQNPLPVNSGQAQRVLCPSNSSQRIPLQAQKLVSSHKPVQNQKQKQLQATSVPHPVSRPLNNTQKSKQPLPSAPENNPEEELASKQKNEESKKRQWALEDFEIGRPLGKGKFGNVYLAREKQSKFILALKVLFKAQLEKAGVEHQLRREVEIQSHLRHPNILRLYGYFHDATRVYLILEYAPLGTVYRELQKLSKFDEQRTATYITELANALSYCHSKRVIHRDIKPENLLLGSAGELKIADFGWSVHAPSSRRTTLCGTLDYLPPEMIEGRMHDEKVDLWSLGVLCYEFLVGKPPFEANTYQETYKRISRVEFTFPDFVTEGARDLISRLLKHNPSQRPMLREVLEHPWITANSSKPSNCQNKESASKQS

[5] = molecular target: AURKB (human) (UniProt Q96GD4); conditions: compound 10.0 µM
Sequence of AURKB (human) (Q96GD4 whole entry, looked up): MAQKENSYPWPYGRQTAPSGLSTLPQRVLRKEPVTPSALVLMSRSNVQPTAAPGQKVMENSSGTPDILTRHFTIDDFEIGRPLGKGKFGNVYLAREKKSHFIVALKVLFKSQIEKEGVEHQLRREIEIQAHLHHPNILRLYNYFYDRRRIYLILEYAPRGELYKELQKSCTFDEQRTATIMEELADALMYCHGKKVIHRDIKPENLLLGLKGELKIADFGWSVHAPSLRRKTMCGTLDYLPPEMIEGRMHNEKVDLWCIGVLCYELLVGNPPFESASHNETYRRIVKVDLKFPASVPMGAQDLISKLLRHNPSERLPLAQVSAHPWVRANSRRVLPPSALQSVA

[6] = molecular target: AURKC (human) (UniProt Q9UQB9); conditions: compound 10.0 µM
Sequence of AURKC (human) (Q9UQB9 whole entry, looked up): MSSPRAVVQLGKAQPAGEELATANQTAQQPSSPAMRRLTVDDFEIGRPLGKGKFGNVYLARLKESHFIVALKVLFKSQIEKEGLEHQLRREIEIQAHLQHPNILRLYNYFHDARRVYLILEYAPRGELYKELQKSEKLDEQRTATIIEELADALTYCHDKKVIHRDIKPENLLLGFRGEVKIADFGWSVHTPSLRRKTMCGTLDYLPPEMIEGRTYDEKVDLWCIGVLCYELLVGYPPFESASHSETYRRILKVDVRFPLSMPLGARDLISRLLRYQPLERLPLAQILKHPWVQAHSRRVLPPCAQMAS

[7] = molecular target: DMPK (human) (UniProt Q09013); conditions: compound 10.0 µM
[8] = molecular target: PDPK1 (human) (UniProt O15530); conditions: compound 10.0 µM
Sequence of PDPK1 (human) (O15530 whole entry, looked up): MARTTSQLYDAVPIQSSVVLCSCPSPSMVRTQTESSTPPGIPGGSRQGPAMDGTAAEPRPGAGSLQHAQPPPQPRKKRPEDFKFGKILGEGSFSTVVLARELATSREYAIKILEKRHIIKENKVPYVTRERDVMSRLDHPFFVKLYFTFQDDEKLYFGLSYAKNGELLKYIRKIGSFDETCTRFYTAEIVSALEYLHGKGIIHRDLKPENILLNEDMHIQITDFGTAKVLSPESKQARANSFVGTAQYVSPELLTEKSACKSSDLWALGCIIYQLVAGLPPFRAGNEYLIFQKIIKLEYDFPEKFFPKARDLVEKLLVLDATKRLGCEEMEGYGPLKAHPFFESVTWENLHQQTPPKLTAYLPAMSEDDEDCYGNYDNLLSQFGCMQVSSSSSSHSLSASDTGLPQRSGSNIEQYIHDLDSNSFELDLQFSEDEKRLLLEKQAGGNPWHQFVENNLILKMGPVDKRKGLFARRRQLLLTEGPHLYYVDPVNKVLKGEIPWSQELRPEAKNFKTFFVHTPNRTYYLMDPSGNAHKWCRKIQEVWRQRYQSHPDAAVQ

[9] = molecular target: PKN1 (human) (UniProt Q16512); conditions: compound 10.0 µM
[10] = system: PRKACA (mouse); conditions: compound 10.0 µM; accession and sequence are those of the human protein
[11] = molecular target: PRKACB (human) (UniProt P22694); conditions: compound 10.0 µM
[12] = molecular target: PRKCD (human) (UniProt Q05655); conditions: compound 10.0 µM
Sequence of PRKCD (human) (Q05655 whole entry, looked up): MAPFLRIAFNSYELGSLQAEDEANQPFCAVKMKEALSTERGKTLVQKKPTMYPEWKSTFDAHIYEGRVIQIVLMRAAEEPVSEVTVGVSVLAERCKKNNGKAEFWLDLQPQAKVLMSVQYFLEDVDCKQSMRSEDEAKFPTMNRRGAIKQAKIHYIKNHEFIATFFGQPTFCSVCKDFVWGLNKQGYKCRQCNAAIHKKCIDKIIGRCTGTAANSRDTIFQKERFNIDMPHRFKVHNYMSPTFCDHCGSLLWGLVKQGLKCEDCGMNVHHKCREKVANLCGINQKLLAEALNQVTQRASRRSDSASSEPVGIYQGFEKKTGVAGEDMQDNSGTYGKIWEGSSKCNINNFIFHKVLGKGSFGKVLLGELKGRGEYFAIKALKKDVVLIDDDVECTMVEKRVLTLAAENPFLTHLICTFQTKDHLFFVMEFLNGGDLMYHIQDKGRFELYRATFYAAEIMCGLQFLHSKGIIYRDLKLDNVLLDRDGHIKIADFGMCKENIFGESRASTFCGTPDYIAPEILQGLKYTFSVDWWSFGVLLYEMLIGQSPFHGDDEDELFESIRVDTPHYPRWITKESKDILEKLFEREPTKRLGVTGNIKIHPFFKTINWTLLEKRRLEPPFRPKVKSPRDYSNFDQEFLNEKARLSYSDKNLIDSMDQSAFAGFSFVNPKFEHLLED

[13] = molecular target: PRKCE (human) (UniProt Q02156); conditions: compound 10.0 µM
[14] = molecular target: PRKCG (human) (UniProt P05129); conditions: compound 10.0 µM
[15] = molecular target: PRKCH (human) (UniProt P24723); conditions: compound 10.0 µM
[16] = molecular target: PRKCI (human) (UniProt P41743); conditions: compound 10.0 µM
[17] = molecular target: PRKCQ (human) (UniProt Q04759); conditions: compound 10.0 µM
Sequence of PRKCQ (human) (Q04759 whole entry, looked up): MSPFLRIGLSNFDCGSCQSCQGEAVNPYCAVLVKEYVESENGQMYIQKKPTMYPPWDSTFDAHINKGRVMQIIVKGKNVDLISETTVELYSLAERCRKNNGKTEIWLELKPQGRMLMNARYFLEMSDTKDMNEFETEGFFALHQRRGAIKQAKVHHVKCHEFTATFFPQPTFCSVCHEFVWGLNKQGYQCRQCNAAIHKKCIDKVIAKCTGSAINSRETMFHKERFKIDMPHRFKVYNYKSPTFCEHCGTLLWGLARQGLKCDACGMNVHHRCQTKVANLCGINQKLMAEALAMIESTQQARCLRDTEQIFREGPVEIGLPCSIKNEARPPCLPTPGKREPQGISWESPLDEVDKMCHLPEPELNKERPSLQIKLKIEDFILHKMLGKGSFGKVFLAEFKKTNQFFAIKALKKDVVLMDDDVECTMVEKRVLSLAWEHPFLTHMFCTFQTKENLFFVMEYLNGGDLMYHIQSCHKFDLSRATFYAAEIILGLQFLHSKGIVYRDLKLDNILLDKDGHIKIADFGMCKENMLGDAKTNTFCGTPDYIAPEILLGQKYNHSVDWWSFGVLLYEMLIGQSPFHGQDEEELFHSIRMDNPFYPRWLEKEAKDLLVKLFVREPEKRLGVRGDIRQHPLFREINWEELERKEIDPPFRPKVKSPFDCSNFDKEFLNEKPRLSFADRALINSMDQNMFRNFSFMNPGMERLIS

[18] = molecular target: PRKX (human) (UniProt P51817); conditions: compound 10.0 µM
[19] = molecular target: RPS6KA1 KD1 (human) (UniProt Q15418); conditions: compound 10.0 µM
[20] = molecular target: RPS6KA2 KD1 (human) (UniProt Q15349); conditions: compound 10.0 µM
[21] = molecular target: RPS6KA3 KD1 (human) (UniProt P51812); conditions: compound 10.0 µM
[22] = molecular target: RPS6KA4 KD1 (human) (UniProt O75676); conditions: compound 10.0 µM
[23] = molecular target: RPS6KA5 KD1 (human) (UniProt O75582); conditions: compound 10.0 µM
Sequence of RPS6KA5 KD1 (human) (O75582 whole entry, looked up): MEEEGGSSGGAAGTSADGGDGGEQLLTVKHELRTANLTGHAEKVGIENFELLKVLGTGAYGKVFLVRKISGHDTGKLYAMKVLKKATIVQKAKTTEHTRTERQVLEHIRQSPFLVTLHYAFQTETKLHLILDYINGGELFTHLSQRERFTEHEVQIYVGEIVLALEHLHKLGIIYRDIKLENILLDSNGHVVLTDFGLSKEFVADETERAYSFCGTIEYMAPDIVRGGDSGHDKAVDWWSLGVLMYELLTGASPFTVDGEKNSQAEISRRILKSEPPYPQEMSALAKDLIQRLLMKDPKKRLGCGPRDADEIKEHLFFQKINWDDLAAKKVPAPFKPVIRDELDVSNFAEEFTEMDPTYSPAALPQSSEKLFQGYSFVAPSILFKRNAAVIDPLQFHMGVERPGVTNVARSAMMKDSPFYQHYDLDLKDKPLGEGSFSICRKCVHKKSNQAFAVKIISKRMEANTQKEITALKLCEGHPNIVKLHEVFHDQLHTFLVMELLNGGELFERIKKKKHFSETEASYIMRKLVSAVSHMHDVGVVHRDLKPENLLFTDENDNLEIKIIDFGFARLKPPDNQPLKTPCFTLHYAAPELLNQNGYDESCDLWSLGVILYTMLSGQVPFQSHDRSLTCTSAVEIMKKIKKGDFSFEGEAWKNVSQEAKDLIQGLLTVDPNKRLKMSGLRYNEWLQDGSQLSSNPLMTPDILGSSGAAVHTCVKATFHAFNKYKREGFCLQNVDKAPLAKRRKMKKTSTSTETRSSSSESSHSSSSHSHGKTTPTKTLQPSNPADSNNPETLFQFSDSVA

[24] = molecular target: RPS6KA6 KD1 (human) (UniProt Q9UK32); conditions: compound 10.0 µM
[25] = molecular target: SGK2 (human) (UniProt Q9HBY8); conditions: compound 10.0 µM
Sequence of SGK2 (human) (Q9HBY8 whole entry, looked up): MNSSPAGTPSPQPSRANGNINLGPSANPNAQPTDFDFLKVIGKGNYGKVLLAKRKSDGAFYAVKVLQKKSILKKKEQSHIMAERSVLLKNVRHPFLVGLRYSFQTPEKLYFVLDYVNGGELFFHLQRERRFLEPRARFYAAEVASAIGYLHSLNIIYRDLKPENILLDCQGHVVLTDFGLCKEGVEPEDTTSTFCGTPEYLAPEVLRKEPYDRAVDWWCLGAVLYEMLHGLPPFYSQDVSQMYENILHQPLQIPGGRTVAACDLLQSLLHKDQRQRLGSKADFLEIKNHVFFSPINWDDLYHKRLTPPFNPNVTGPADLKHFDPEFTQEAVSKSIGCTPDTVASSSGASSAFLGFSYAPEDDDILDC

[26] = molecular target: SGK3 (human) (UniProt Q96BR1); conditions: compound 10.0 µM
[27] = molecular target: STK32B (human) (UniProt Q9NY57); conditions: compound 10.0 µM

SMILES | inhibition [1] | inhibition [2] | inhibition [3] | inhibition [4] | inhibition [5] | inhibition [6] | inhibition [7] | inhibition [8] | inhibition [9] | inhibition [10] | inhibition [11] | inhibition [12] | inhibition [13] | inhibition [14] | inhibition [15] | inhibition [16] | inhibition [17] | inhibition [18] | inhibition [19] | inhibition [20] | further results
COc1cc(CC2C(=O)OC[C@@H]2Cc2ccc(OC)c(OC)c2)ccc1O (stereo partly drawn) | 0% | 0% | 0% | 11% | 0% | 6% | 0% | 0% | 0% | 0% | 1% | 0% | 0% | 0% | 0% | 0% | 0% | 0% | 2% | 0% | inhibition [21]: 6%; inhibition [22]: 0%; inhibition [23]: 0%; inhibition [24]: 12%; inhibition [25]: 7%; inhibition [26]: 1%; inhibition [27]: 15%
C/C(O)=C(\C#N)C(=O)Nc1cc(Br)ccc1Br | 0% | 0% | 0% | 0% | 0% | 0% | 0% | 0% | 0% | 7% | 0% | 0% | 0% | 0% | 0% | 0% | 0% | 0% | 0% | 0% | inhibition [21]: 0%; inhibition [22]: 0%; inhibition [23]: 0%; inhibition [24]: 0%; inhibition [25]: 0%; inhibition [26]: 0%; inhibition [27]: 0%
CC(C)N(CCC(=O)c1ccc2ccccc2c1)Cc1ccccc1 | 0% | 0% | 0% | 0% | 0% | 0% | 0% | 1% | 0% | 1% | 0% | 0% | 0% | 0% | 0% | 0% | 0% | 0% | 0% | 0% | inhibition [21]: 0%; inhibition [22]: 0%; inhibition [23]: 2%; inhibition [24]: 0%; inhibition [25]: 0%; inhibition [26]: 0%; inhibition [27]: 0%
Cc1cc(F)c(Nc2ncnc3cc(OCc4ccccc4)ccc23)cc1O | 0% | 0% | 0% | 0% | 1% | 0% | 0% | 2% | 0% | 2% | 0% | 0% | 6% | 1% | 0% | 5% | 0% | 1% | 0% | 0% | inhibition [21]: 0%; inhibition [22]: 0%; inhibition [23]: 0%; inhibition [24]: 0%; inhibition [25]: 0%; inhibition [26]: 0%; inhibition [27]: 16%
CN(C)CCCn1cc(C2=C(c3c[nH]c4ccccc34)C(=O)NC2=O)c2ccccc21 | 5% | 0% | 37% | 2% | 0% | 0% | 34% | 0% | 5% | 26% | 34% | 52% | 37% | 11% | 77% | 35% | 69% | 10% | 40% | 59% | inhibition [21]: 33%; inhibition [22]: 30%; inhibition [23]: 39%; inhibition [24]: 32%; inhibition [25]: 0%; inhibition [26]: 2%; inhibition [27]: 29%

Now from value to molecule, other results behind:

inhibition [1] | inhibition [2] | inhibition [3] | inhibition [4] | inhibition [5] | inhibition [6] | inhibition [7] | inhibition [8] | inhibition [9] | inhibition [10] | inhibition [11] | inhibition [12] | inhibition [13] | inhibition [14] | inhibition [15] | inhibition [16] | inhibition [17] | inhibition [18] | inhibition [19] | inhibition [20] | SMILES | further results
16% | 0% | 0% | 13% | 0% | 21% | 5% | 0% | 0% | 8% | 5% | 0% | 14% | 10% | 6% | 0% | 0% | 7% | 14% | 0% | CS(=O)(=O)CCNCc1nc(-c2ccc3ncnc(Nc4ccc(OCc5cccc(F)c5)c(Cl)c4)c3c2)cs1 | inhibition [21]: 0%; inhibition [22]: 6%; inhibition [23]: 0%; inhibition [24]: 5%; inhibition [25]: 11%; inhibition [26]: 6%; inhibition [27]: 9%
11% | 0% | 0% | 6% | 0% | 0% | 0% | 3% | 0% | 0% | 0% | 0% | 0% | 0% | 5% | 0% | 0% | 0% | 0% | 3% | CS(=O)c1ccc(-c2nc(-c3ccc(F)cc3)c(-c3ccncc3)[nH]2)cc1 (stereo not drawn) | inhibition [21]: 2%; inhibition [22]: 0%; inhibition [23]: 0%; inhibition [24]: 0%; inhibition [25]: 0%; inhibition [26]: 0%; inhibition [27]: 36%
0% | 0% | 0% | 1% | 56% | 31% | 0% | 0% | 0% | 4% | 0% | 0% | 19% | 0% | 56% | 0% | 18% | 9% | 44% | 20% | NC(=O)Nc1sc(-c2ccc(F)cc2)cc1C(N)=O | inhibition [21]: 7%; inhibition [22]: 16%; inhibition [23]: 0%; inhibition [24]: 37%; inhibition [25]: 0%; inhibition [26]: 0%; inhibition [27]: 0%
5% | 0% | 0% | 0% | 0% | 3% | 0% | 0% | 0% | 0% | 7% | 0% | 16% | 15% | 7% | 0% | 0% | 4% | 2% | 2% | O=C(NC(NC(=S)Nc1ccc(F)c([N+](=O)[O-])c1)C(Cl)(Cl)Cl)C(c1ccccc1)c1ccccc1 (stereo not drawn) | inhibition [21]: 0%; inhibition [22]: 0%; inhibition [23]: 2%; inhibition [24]: 4%; inhibition [25]: 3%; inhibition [26]: 0%; inhibition [27]: 8%
